Assay results as given in patent publication US9593108B2, “Compounds and methods for antiviral treatment” (PTC Therapeutics, Inc., priority 2009, dated 2017).

Columns and labels:
[1] = tested on: HCV replicon RNA (GenBank Accession No. AJ242654); test: HCV Replicon Assay (replicon RNA reduction and/or Fluc reporter signal); type: cell-based, Hepatitis C virus; details: Hepatitis C virus, 72 h, replicon-containing cells cultured with test compound for up to 3 days
Procedure, shortened: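 Bicistronic replicon-containing cells cultured with compound for up to 3 days, with interferon as positive control. Inhibition quantified by replicon RNA reduction and/or Fluc reporter signal; IC50 values generally derived from replicon RNA reduction.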

Compound	melting point	IC50 [1]
C[C@H](NS(=O)(=O)c1ccc(-c2c(C#N)c3cc(C(F)(F)F)cnc3n2-c2ccccc2)nc1)C(F)(F)F [Cpd 318, 6-[3-cyano-1-phenyl-5-(trifluoromethyl)-1H-pyrrolo[2,3-b]pyridin-2-yl]-N-[(2S)-1,1,1-trifluoropropan-2-yl]pyridine-3-sulfonamide]	186 to 188 °C	< 500 nM
C[C@H](NS(=O)(=O)c1ccc(-c2c(C#N)c3cc(F)cnc3n2-c2ncccn2)nc1)C(F)(F)F [Cpd 320, 6-[3-cyano-5-fluoro-1-(pyrimidin-2-yl)-1H-pyrrolo[2,3-b]pyridin-2-yl]-N-[(2S)-1,1,1-trifluoropropan-2-yl]pyridine-3-sulfonamide]	171 to 173 °C	< 500 nM
C[C@H](NS(=O)(=O)c1ccc(-c2c(C#N)c3cc(F)cnc3n2-c2cnccn2)nc1)C(F)(F)F [Cpd 321, 6-[3-cyano-5-fluoro-1-(pyrazin-2-yl)-1H-pyrrolo[2,3-b]pyridin-2-yl]-N-[(2S)-1,1,1-trifluoropropan-2-yl]pyridine-3-sulfonamide]	212 to 214 °C	< 500 nM
C[C@H](NS(=O)(=O)c1ccc(-c2c(C#N)c3cc(F)cnc3n2-c2ccccn2)nc1)C(F)(F)F [Cpd 322, 6-[3-cyano-5-fluoro-1-(pyridin-2-yl)-1H-pyrrolo[2,3-b]pyridin-2-yl]-N-[(2S)-1,1,1-trifluoropropan-2-yl]pyridine-3-sulfonamide]	229 to 231 °C	< 500 nM
CSc1cnc2c(c1)c(C#N)c(-c1ccc(S(=O)(=O)N[C@@H](C)C(F)(F)F)cn1)n2C1CCC1 [Cpd 323, 6-[3-cyano-1-cyclobutyl-5-(methylsulfanyl)-1H-pyrrolo[2,3-b]pyridin-2-yl]-N-[(2S)-1,1,1-trifluoropropan-2-yl]pyridine-3-sulfonamide]	154 to 158 °C	< 500 nM
C[C@H](NS(=O)(=O)c1ccc(-c2c(C(N)=O)c3cc(Cl)cnc3n2C2CCCC2)nc1)C(F)(F)F [Cpd 324, 5-chloro-1-cyclopentyl-2-(5-{[(2S)-1,1,1-trifluoropropan-2-yl]sulfamoyl}pyridin-2-yl)-1H-pyrrolo[2,3-b]pyridine-3-carboxamide]	289 to 295 °C	< 500 nM
NC(=O)c1c(-c2ccc(S(=O)(=O)NC3(C(F)(F)F)CC3)cn2)n(C2CCC2)c2ncc(Cl)cc12 [Cpd 325, 5-chloro-1-cyclobutyl-2-(5-{[1-(trifluoromethyl)cyclopropyl]sulfamoyl}pyridin-2-yl)-1H-pyrrolo[2,3-b]pyridine-3-carboxamide]	238 to 240 °C	< 500 nM
CC(C)(NS(=O)(=O)c1ccc(-c2c(C(N)=O)c3cc(Cl)cnc3n2C2CCC2)nc1)C(F)(F)F [Cpd 326, 5-chloro-1-cyclobutyl-2-{5-[(1,1,1-trifluoro-2-methylpropan-2-yl)sulfamoyl]pyridin-2-yl}-1H-pyrrolo[2,3-b]pyridine-3-carboxamide]	239 to 241 °C	< 500 nM
CC(C)(C)NS(=O)(=O)c1ccc(-c2c(C(N)=O)c3cc(Cl)cnc3n2C2CCC2)nc1 [Cpd 327, 2-[5-(tert-butylsulfamoyl)pyridin-2-yl]-5-chloro-1-cyclobutyl-1H-pyrrolo[2,3-b]pyridine-3-carboxamide]	240 to 241 °C	< 500 nM
NC(=O)c1c(-c2ccc(S(=O)(=O)NC3(C(F)(F)F)CC3)cc2)n(C2CCC2)c2ncc(Cl)cc12 [Cpd 328, 5-chloro-1-cyclobutyl-2-(4-{[1-(trifluoromethyl)cyclopropyl]sulfamoyl}phenyl)-1H-pyrrolo[2,3-b]pyridine-3-carboxamide]	271 to 272 °C	< 500 nM
CC(C)(NS(=O)(=O)c1ccc(-c2c(C(N)=O)c3cc(Cl)cnc3n2C2CCC2)cc1)C(F)(F)F [Cpd 329, 5-chloro-1-cyclobutyl-2-{4-[(1,1,1-trifluoro-2-methylpropan-2-yl)sulfamoyl]phenyl}-1H-pyrrolo[2,3-b]pyridine-3-carboxamide]	263 to 265 °C	< 500 nM
COc1ccc(-n2c(-c3ccc(S(=O)(=O)N[C@@H](C)C(F)(F)F)cn3)c(C#N)c3cc(C(F)(F)F)cnc32)nc1 [Cpd 332, 6-[3-cyano-1-(5-methoxypyridin-2-yl)-5-(trifluoromethyl)-1H-pyrrolo[2,3-b]pyridin-2-yl]-N-[(2S)-1,1,1-trifluoropropan-2-yl]pyridine-3-sulfonamide]	203 to 206 °C	500 to 2000 nM
COc1ccnc(-n2c(-c3ccc(S(=O)(=O)N[C@@H](C)C(F)(F)F)cn3)c(C#N)c3cc(C(F)(F)F)cnc32)n1 [Cpd 333, 6-[3-cyano-1-(4-methoxypyrimidin-2-yl)-5-(trifluoromethyl)-1H-pyrrolo[2,3-b]pyridin-2-yl]-N-[(2S)-1,1,1-trifluoropropan-2-yl]pyridine-3-sulfonamide]	209 to 211 °C	2000 to 5000 nM
CC(C)(C)NS(=O)(=O)c1ccc(-c2c(C#N)c3cc(C(F)(F)F)cnc3n2-c2ncccn2)cc1 [Cpd 334, N-tert-butyl-4-[3-cyano-1-(pyrimidin-2-yl)-5-(trifluoromethyl)-1H-pyrrolo[2,3-b]pyridin-2-yl]benzenesulfonamide]	228 to 230 °C	2000 to 5000 nM
CC(C)(C)NS(=O)(=O)c1ccc(-c2c(C#N)c3cc(C(F)(F)F)cnc3n2-c2cnccn2)cc1 [Cpd 335, N-tert-butyl-4-[3-cyano-1-(pyrazin-2-yl)-5-(trifluoromethyl)-1H-pyrrolo[2,3-b]pyridin-2-yl]benzenesulfonamide]	190 to 192 °C	< 500 nM
CC(C)(C)NS(=O)(=O)c1ccc(-c2c(C#N)c3cc(C(F)(F)F)cnc3n2-c2ccccn2)cc1 [Cpd 336, N-tert-butyl-4-[3-cyano-1-(pyridin-2-yl)-5-(trifluoromethyl)-1H-pyrrolo[2,3-b]pyridin-2-yl]benzenesulfonamide]	227 to 230 °C	500 to 2000 nM
CC(C)(C)NS(=O)(=O)c1ccc(-c2c(C#N)c3cc(C(F)(F)F)cnc3n2-c2ccccc2)cc1 [Cpd 337, N-tert-butyl-4-[3-cyano-1-phenyl-5-(trifluoromethyl)-1H-pyrrolo[2,3-b]pyridin-2-yl]benzenesulfonamide]	206 to 208 °C	500 to 2000 nM
Cc1nc(-c2c(C#N)c3cc(C(F)(F)F)cnc3n2C2CCC2)ccc1S(=O)(=O)N[C@@H](C)C(F)(F)F [Cpd 338, 6-[3-cyano-1-cyclobutyl-5-(trifluoromethyl)-1H-pyrrolo[2,3-b]pyridin-2-yl]-2-methyl-N-[(2S)-1,1,1-trifluoropropan-2-yl]pyridine-3-sulfonamide]	162 to 165 °C	< 500 nM
C[C@H](NS(=O)(=O)c1ccc(-c2c(C#N)c3cc(Br)cnc3n2-c2ncccn2)nc1)C(F)(F)F [Cpd 339, 6-[5-bromo-3-cyano-1-(pyrimidin-2-yl)-1H-pyrrolo[2,3-b]pyridin-2-yl]-N-[(2S)-1,1,1-trifluoropropan-2-yl]pyridine-3-sulfonamide]	223 to 225 °C	< 500 nM
C[C@H](NS(=O)(=O)c1ccc(-c2c(C#N)c3cc(Br)cnc3n2-c2cnccn2)nc1)C(F)(F)F [Cpd 340, 6-[5-bromo-3-cyano-1-(pyrazin-2-yl)-1H-pyrrolo[2,3-b]pyridin-2-yl]-N-[(2S)-1,1,1-trifluoropropan-2-yl]pyridine-3-sulfonamide]	247 to 248 °C	< 500 nM
Cc1cnc2c(c1)c(C(N)=O)c(-c1ccc(S(=O)(=O)NC(C)(C)C(F)(F)F)cc1)n2C1CCC1 [Cpd 341, 1-cyclobutyl-5-methyl-2-{4-[(1,1,1-trifluoro-2-methylpropan-2-yl)sulfamoyl]phenyl}-1H-pyrrolo[2,3-b]pyridine-3-carboxamide]	235 to 237 °C	< 500 nM
C[C@H](NS(=O)(=O)c1ccc(-c2c(C#N)c3cc(C4CC4)cnc3n2-c2cnccn2)nc1)C(F)(F)F [Cpd 344, 6-[3-cyano-5-cyclopropyl-1-(pyrazin-2-yl)-1H-pyrrolo[2,3-b]pyridin-2-yl]-N-[(2S)-1,1,1-trifluoropropan-2-yl]pyridine-3-sulfonamide]	219 to 221 °C	< 500 nM
Cc1cnc2c(c1)c(C#N)c(-c1ccc(S(=O)(=O)N[C@@H](C)C(F)(F)F)cn1)n2-c1ncccn1 [Cpd 345, 6-[3-cyano-5-methyl-1-(pyrimidin-2-yl)-1H-pyrrolo[2,3-b]pyridin-2-yl]-N-[(2S)-1,1,1-trifluoropropan-2-yl]pyridine-3-sulfonamide]	221 to 223 °C	< 500 nM
Cc1cnc2c(c1)c(C#N)c(-c1ccc(S(=O)(=O)N[C@@H](C)C(F)(F)F)cn1)n2-c1ccccn1 [Cpd 346, 6-[3-cyano-5-methyl-1-(pyridin-2-yl)-1H-pyrrolo[2,3-b]pyridin-2-yl]-N-[(2S)-1,1,1-trifluoropropan-2-yl]pyridine-3-sulfonamide]	165 to 167 °C	< 500 nM
Cc1cnc2c(c1)c(C#N)c(-c1ccc(S(=O)(=O)N[C@@H](C)C(F)(F)F)cn1)n2-c1cccnc1 [Cpd 347, 6-[3-cyano-5-methyl-1-(pyridin-3-yl)-1H-pyrrolo[2,3-b]pyridin-2-yl]-N-[(2S)-1,1,1-trifluoropropan-2-yl]pyridine-3-sulfonamide]	205 to 207 °C	< 500 nM
Cc1cnc2c(c1)c(C#N)c(-c1ccc(S(=O)(=O)N[C@@H](C)C(F)(F)F)cn1)n2-c1ccccc1 [Cpd 348, 6-(3-cyano-5-methyl-1-phenyl-1H-pyrrolo[2,3-b]pyridin-2-yl)-N-[(2S)-1,1,1-trifluoropropan-2-yl]pyridine-3-sulfonamide]	220 to 222 °C	< 500 nM
Cc1cnc2c(c1)c(C#N)c(-c1ccc(S(=O)(=O)N[C@@H](C)C(F)(F)F)cn1)n2-c1cnccn1 [Cpd 349, 6-[3-cyano-5-methyl-1-(pyrazin-2-yl)-1H-pyrrolo[2,3-b]pyridin-2-yl]-N-[(2S)-1,1,1-trifluoropropan-2-yl]pyridine-3-sulfonamide]	220 to 222 °C	< 500 nM
